{"source": "patent US7058616B1", "about": "“Method and system for predicting resistance of a disease to a therapeutic agent using a neural network” (Virco Bvba, priority 2000, dated 2006)", "key": {"HIV-1 [1]": {"system": "HIV-1", "experiment": "MT-4 cell viral cytopathic effect protection assay, phenotypic susceptibility of patient recombinant virus", "assay_type": "cell-based", "method": "Phenotypic susceptibility was determined using a MT-4 cell viral cytopathic effect protection assay. See, e.g., Kashiwase et al., Chemotherapy 45(1):48–55 (1999), expressly incorporated herein by reference; Larder et al., Antimicrob. Agents Chemother. 43(8):1961–1967 (1999)."}, "HIV-1 [2]": {"system": "HIV-1", "settings": "in vitro; cited from earlier work"}}}
{"smiles": "CC(C)CN(C[C@@H](O)[C@H](Cc1ccccc1)NC(=O)O[C@H]1CCOC1)S(=O)(=O)c1ccc(N)cc1", "note": "[VX-478]", "values": [{"measurement": "actual phenotype resistance level", "setting": "HIV-1 [1]; PI test sample 1", "result": "S/S (A fold resistance of less than or equal to 4 is considered to be ‘sensitive’)"}, {"measurement": "actual phenotype resistance level", "setting": "HIV-1 [1]; PI test sample 2", "result": "S/S (A fold resistance of less than or equal to 4 is considered to be ‘sensitive’)"}, {"measurement": "actual phenotype resistance level", "setting": "HIV-1 [1]; PI test sample 3", "result": "S/S (A fold resistance of less than or equal to 4 is considered to be ‘sensitive’)"}, {"measurement": "actual phenotype resistance level", "setting": "HIV-1 [1]; PI test sample 4", "result": "I/I (greater than 4 and less than 10 is considered to be ‘intermediate’)"}, {"measurement": "actual phenotype resistance level", "setting": "HIV-1 [1]; PI test sample 6", "result": "S/S (A fold resistance of less than or equal to 4 is considered to be ‘sensitive’)"}, {"measurement": "actual phenotype resistance level", "setting": "HIV-1 [1]; PI test sample 7", "result": "S/S (A fold resistance of less than or equal to 4 is considered to be ‘sensitive’)"}, {"measurement": "actual phenotype resistance level", "setting": "HIV-1 [1]; PI test sample 8", "result": "S/S (A fold resistance of less than or equal to 4 is considered to be ‘sensitive’)"}, {"measurement": "actual phenotype resistance level", "setting": "HIV-1 [1]; PI test sample 9", "result": "S/S (A fold resistance of less than or equal to 4 is considered to be ‘sensitive’)"}, {"measurement": "actual phenotype resistance level", "setting": "HIV-1 [1]; PI test sample 10", "result": "S/S (A fold resistance of less than or equal to 4 is considered to be ‘sensitive’)"}, {"measurement": "actual phenotype resistance level", "setting": "HIV-1 [1]; PI test sample 11", "result": "S/S (A fold resistance of less than or equal to 4 is considered to be ‘sensitive’)"}, {"measurement": "actual phenotype resistance level", "setting": "HIV-1 [1]; PI test sample 12", "result": "S/S (A fold resistance of less than or equal to 4 is considered to be ‘sensitive’)"}, {"measurement": "actual phenotype resistance level", "setting": "HIV-1 [1]; PI test sample 13", "result": "I/I (greater than 4 and less than 10 is considered to be ‘intermediate’)"}, {"measurement": "actual phenotype resistance level", "setting": "HIV-1 [1]; PI test sample 14", "result": "S/S (A fold resistance of less than or equal to 4 is considered to be ‘sensitive’)"}, {"measurement": "actual phenotype resistance level", "setting": "HIV-1 [1]; PI test sample 15", "result": "S/S (A fold resistance of less than or equal to 4 is considered to be ‘sensitive’)"}, {"measurement": "actual phenotype resistance level", "setting": "HIV-1 [1]; PI test sample 16", "result": "R/R (if the value is greater than 10, it is considered to be ‘resistant’)"}, {"measurement": "actual phenotype resistance level", "setting": "HIV-1 [1]; PI test sample 18", "result": "S/S (A fold resistance of less than or equal to 4 is considered to be ‘sensitive’)"}, {"measurement": "actual phenotype resistance level", "setting": "HIV-1 [1]; PI test sample 19", "result": "S/S (A fold resistance of less than or equal to 4 is considered to be ‘sensitive’)"}, {"measurement": "actual phenotype resistance level", "setting": "HIV-1 [1]; PI test sample 20", "result": "S/S (A fold resistance of less than or equal to 4 is considered to be ‘sensitive’)"}, {"measurement": "actual phenotype resistance level", "setting": "HIV-1 [1]; PI test sample 21", "result": "S/S (A fold resistance of less than or equal to 4 is considered to be ‘sensitive’)"}, {"measurement": "actual phenotype resistance level", "setting": "HIV-1 [1]; PI test sample 22", "result": "S/S (A fold resistance of less than or equal to 4 is considered to be ‘sensitive’)"}, {"measurement": "actual phenotype resistance level", "setting": "HIV-1 [1]; PI test sample 23, listed as Amprenavir", "result": "R/R (if the value is greater than 10, it is considered to be ‘resistant’)"}, {"measurement": "actual phenotype resistance level", "setting": "HIV-1 [1]; PI test sample 24", "result": "R/R (if the value is greater than 10, it is considered to be ‘resistant’)"}, {"measurement": "actual phenotype resistance level", "setting": "HIV-1 [1]; PI test sample 26", "result": "S/S (A fold resistance of less than or equal to 4 is considered to be ‘sensitive’)"}, {"measurement": "actual phenotype resistance level", "setting": "HIV-1 [1]; PI test sample 30", "result": "I/I (greater than 4 and less than 10 is considered to be ‘intermediate’)"}, {"measurement": "actual phenotype resistance level", "setting": "HIV-1 [1]; PI test sample 31, listed as Amprenavir", "result": "R/R (if the value is greater than 10, it is considered to be ‘resistant’)"}, {"measurement": "actual phenotype resistance level", "setting": "HIV-1 [1]; PI test sample 36, listed as APV", "result": "I/I (greater than 4 and less than 10 is considered to be ‘intermediate’)"}, {"measurement": "actual phenotype resistance level", "setting": "HIV-1 [1]; PI test sample 38, listed as Amprenavir", "result": "I/I (greater than 4 and less than 10 is considered to be ‘intermediate’)"}, {"measurement": "actual phenotype resistance level", "setting": "HIV-1 [1]; PI test sample 39", "result": "I/I (greater than 4 and less than 10 is considered to be ‘intermediate’)"}, {"measurement": "actual phenotype resistance level", "setting": "HIV-1 [1]; PI test sample 44", "result": "I/I (greater than 4 and less than 10 is considered to be ‘intermediate’)"}, {"measurement": "actual phenotype resistance level", "setting": "HIV-1 [1]; PI test sample 46", "result": "I/I (greater than 4 and less than 10 is considered to be ‘intermediate’)"}, {"measurement": "actual phenotype resistance level", "setting": "HIV-1 [1]; PI test sample 49", "result": "I/I (greater than 4 and less than 10 is considered to be ‘intermediate’)"}, {"measurement": "actual phenotype resistance level", "setting": "HIV-1 [1]; Table 3 testing sample 1", "result": "S/S (A fold resistance of less than or equal to 4 is considered to be “sensitive,”)"}, {"measurement": "actual phenotype resistance level", "setting": "HIV-1 [1]; Table 3 testing sample 2", "result": "S (A fold resistance of less than or equal to 4 is considered to be “sensitive,”)"}, {"measurement": "actual phenotype resistance level", "setting": "HIV-1 [1]; Table 3 testing sample 3", "result": "S/S (A fold resistance of less than or equal to 4 is considered to be “sensitive,”)"}, {"measurement": "actual phenotype resistance level", "setting": "HIV-1 [1]; Table 3 testing sample 6", "result": "S/S (A fold resistance of less than or equal to 4 is considered to be “sensitive,”)"}, {"measurement": "actual phenotype resistance level", "setting": "HIV-1 [1]; Table 3 testing sample 7", "result": "S/S (A fold resistance of less than or equal to 4 is considered to be “sensitive,”)"}, {"measurement": "actual phenotype resistance level", "setting": "HIV-1 [1]; Table 3 testing sample 8", "result": "S/S (A fold resistance of less than or equal to 4 is considered to be “sensitive,”)"}, {"measurement": "actual phenotype resistance level", "setting": "HIV-1 [1]; Table 3 testing sample 9", "result": "S/S (A fold resistance of less than or equal to 4 is considered to be “sensitive,”)"}, {"measurement": "actual phenotype resistance level", "setting": "HIV-1 [1]; Table 3 testing sample 10", "result": "S/S (A fold resistance of less than or equal to 4 is considered to be “sensitive,”)"}, {"measurement": "actual phenotype", "setting": "HIV-1 [1]; Table 13/14 sample 4: 10I,46I,71V,77I,84V,90M, 63P,93L", "result": "S (A fold resistance of less than or equal to 4 is considered to be ‘sensitive’)"}, {"measurement": "actual phenotype", "setting": "HIV-1 [1]; Table 13/14 sample 12: 10I,36I,46I,84V,90M, 20I,63P,73C,85V", "result": "R (if the value is greater than 10, it is considered to be ‘resistant’)"}, {"measurement": "actual phenotype", "setting": "HIV-1 [1]; Table 13/14 sample 15: 46I,84V,90M, 20I,63Q", "result": "I (greater than 4 and less than 10 is considered to be ‘intermediate’)"}, {"measurement": "actual phenotype", "setting": "HIV-1 [1]; Table 13/14 sample 16: 10I,46I,77I,84V,90M, 63P,73T,93L", "result": "S (A fold resistance of less than or equal to 4 is considered to be ‘sensitive’)"}, {"measurement": "actual phenotype", "setting": "HIV-1 [1]; Table 13/14 sample 22: 10I,20R,36I,71V,73S,84V,90M, 13V,63P", "result": "I (greater than 4 and less than 10 is considered to be ‘intermediate’)"}, {"measurement": "actual phenotype", "setting": "HIV-1 [1]; Table 13/14 sample 23: 10I,46I,77I,90M, 20I,63P,73T", "result": "S (A fold resistance of less than or equal to 4 is considered to be ‘sensitive’)"}, {"measurement": "Effect of N88S mutation on susceptibility", "setting": "HIV-1 [2]", "result": "in vitro hypersensitivity"}]}
